Legend:
Format in all cases: physicochemical
[1] = Storage stability of valproate resinates (severe conditions): moisture uptake and appearance; details: 40° C., 75% Relative Humidity
Protocol: One gram of each dry resin and resinate were weighed out accurately on an analytical balance in an aluminum dish along with a sample of sodium valproate. They were dried for two hours @60° C. in vaccuo and then placed in an incubator was at 40° C. and 75% Relative Humidity. After 17 hours the samples were removed from the incubator and weighed and observations on appearance were noted. % weight increases were calculated.

[2] = Storage stability of valproate resinates (ambient conditions): appearance over time; details: ambient 25° C., 56% relative humidity
Protocol: The samples from Example 3 were re-dried @60° C. in vaccuo overnight and then exposed to ambient conditions. During the test the ambient temperature was 25° C. and relative humidity was 56%.

[3] = Release of valproate from resinate, flow-thru filtration cell, USP 24 valproic acid dissolution medium; details: 37° C., equivalent of 60 mg sodium valproate
Protocol: The release of valproate from Resinate A was evaluated and compared to that of sodium valproate. The evaluation was performed using a 50 ml Millipore flow-thru filtration cell operated at 37° C. The dissolution medium was prepared as described in the US Pharmacopeia 24 monograph for Valproic Acid (page 1733).
An amount for resinate containing the equivalent of 60 mg of sodium valproate was used for one test and 60 mg of sodium valproate for the other. Fractions were collected at 20, 40, and 60 minutes. Sample preparation and analysis were done according to the US Pharmacopeia 24 monograph for Valproic Acid (page 1733).

CCCC(CCC)C(=O)[O-].[Na+] [Na Valproate, sodium valproate]
Moisture uptake (%) ([1]; 17 hours, after drying 2 h at 60° C. in vacuo): 40.4%
Observation (appearance) ([1]; after 17 hours): Liquid
Observation (appearance) ([2]; time 7:30): Sodium valproate sample is sticky;
Observation (appearance) ([2]; time 7:45): Sodium valproate sample is sticky;
% Valproate dissolved or released, 20 mins ([3]; 20 mins): 81.9%
% Valproate dissolved or released, 40 mins ([3]; 40 mins): 97.8%
% Valproate dissolved or released, 60 mins ([3]; 60 mins): 100%
Total release [3]: 60.1 mg

— patent US20030180249A1, “Dosage forms for hygroscopic active ingredients” (priority 2002, published 2003)
